In article PMC7854658, “Structural basis for ligand recognition of the neuropeptide Y Y2 receptor” (Nature Communications, 2021):
Where a chain is given by its changes, count along the chain named. Values joined by “and” are separate entries in the source; they are usually repeats but may differ in a detail not shown here. Identical values can stand only once.

Key:
[1] = molecular target: T1, Y2R mutant S223^5.42A (Homo sapiens, UniProt P49146, S223A); assay: NPY-induced IP accumulation (IP-One), mutant; format: cell-based; conditions: 1 μM antagonist, source data Fig. 3
T1 construct: expressed in transfected cells; host or cells: HEK293
T1 sequence (P49146 whole entry S223A): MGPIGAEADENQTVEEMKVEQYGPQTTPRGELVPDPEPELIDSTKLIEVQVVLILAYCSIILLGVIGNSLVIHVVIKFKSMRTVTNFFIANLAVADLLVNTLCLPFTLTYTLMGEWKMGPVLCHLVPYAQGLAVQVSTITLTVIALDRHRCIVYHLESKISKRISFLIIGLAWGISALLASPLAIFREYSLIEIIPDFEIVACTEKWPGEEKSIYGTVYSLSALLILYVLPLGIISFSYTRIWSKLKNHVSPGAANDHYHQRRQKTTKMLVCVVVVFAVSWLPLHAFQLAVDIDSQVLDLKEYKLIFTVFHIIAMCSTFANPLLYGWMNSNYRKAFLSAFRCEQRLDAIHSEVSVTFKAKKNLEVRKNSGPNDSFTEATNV
Method: (§1) The plasmid hY2R_eYFP_pVitro2 encoding the WT Y2R and a fluorophore for investigating the receptor localization was used as template for the generation of receptor point mutations as previously described. Mutagenesis PCR was performed using the Phusion High-Fidelity Polymerase (Thermo Fisher Scientific, Waltham, MA, USA). […] The preparations of the plasmid DNA were performed using the Wizard plus Mini or Midi DNA purification kit (Promega, Madison, WI, USA).
(§2) To determine the contribution of residues to antagonist binding, IP-One accumulation assays (Cisbio, Codolet, France) were performed. HEK293 cells were seeded into six-well plates and transiently cotransfected with 3200 ng of receptor plasmid DNA and 800 ng of the chimeric G protein (Gα∆6qi4myr) to redirect the Gαi signaling pathway to the Gαq phospholipase C pathway. Transient transfection was carried out using Metafectene as transfection reagent according to the manufacturer’s protocol (Biontex, Munich, Germany) over night. The cells were then reseeded into white 384-well microplates (Greiner Bio-One, Kremsmünster, Austria) at a density of 15,000 cells per well and grown for additional 24 h.
(§3) All dilutions were performed in HBSS containing 20 mM LiCl (stimulation buffer) and DMSO with a final concentration of 0.01%.
(§4) To determine the amount of cellular IPs, the FRET acceptor (IP1-d2) and the FRET donor (anti-IP1-Cryptate) were reconstituted and diluted in lysis and detection buffer (1:20) as described in the manufacturer’s protocol. Three microliters of both solutions were added, and the cells were incubated on a tumbler for 60 min.

[2] = molecular target: T2, Y2R mutant L224^5.43A (Homo sapiens, UniProt P49146, L224A); assay: NPY-induced IP accumulation (IP-One), mutant; format: cell-based; conditions: 1 μM antagonist, source data Fig. 3
T2 construct: expressed in transfected cells; host or cells: HEK293
T2 sequence (P49146 whole entry L224A): as the sequence (P49146 whole entry S223A) above, with A223S, L224A counted along it
Method: as §1, §2, §3, §4

[3] = molecular target: T3, Y2R mutant F307^7.35A (Homo sapiens, UniProt P49146, F307A); assay: NPY-induced IP accumulation (IP-One), mutant; format: cell-based
T3 construct: expressed in transfected cells; host or cells: HEK293
T3 sequence (P49146 1-381 F307A): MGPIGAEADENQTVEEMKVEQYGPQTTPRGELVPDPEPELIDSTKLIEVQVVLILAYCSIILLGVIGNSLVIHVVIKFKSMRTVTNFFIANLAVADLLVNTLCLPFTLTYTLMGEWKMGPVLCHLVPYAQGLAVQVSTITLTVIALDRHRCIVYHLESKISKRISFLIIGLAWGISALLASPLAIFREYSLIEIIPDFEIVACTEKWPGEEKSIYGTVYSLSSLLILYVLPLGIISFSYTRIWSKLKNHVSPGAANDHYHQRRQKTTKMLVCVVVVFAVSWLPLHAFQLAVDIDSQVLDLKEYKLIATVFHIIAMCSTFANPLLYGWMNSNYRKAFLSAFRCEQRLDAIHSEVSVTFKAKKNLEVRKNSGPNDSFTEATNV
Method: as §1, §2, §3, §4

[4] = molecular target: T4, Y2R mutant V126^3.28A (Homo sapiens, UniProt P49146, V126A); assay: NPY-induced IP accumulation (IP-One), mutant; format: cell-based
T4 construct: expressed in transfected cells; host or cells: HEK293
T4 sequence (P49146 1-381 V126A): T3 sequence (P49146 1-381 F307A) with V126A, A307F
Method: as §1, §2, §3, §4

[5] = molecular target: T5, Y2R mutant Y110^2.64A (Homo sapiens, UniProt P49146, Y110A); assay: NPY-induced IP accumulation (IP-One), mutant; format: cell-based; conditions: 1 μM antagonist, source data Fig. 3
T5 construct: expressed in transfected cells; host or cells: HEK293
T5 sequence (P49146 whole entry Y110A): as the sequence (P49146 whole entry S223A) above, with Y110A, A223S counted along it
Method: as §1, §2, §3, §4

[6] = molecular target: T6, Y2R mutant L227^5.46A (Homo sapiens, UniProt P49146, L227A); assay: NPY-induced IP accumulation (IP-One), mutant; format: cell-based
T6 construct: expressed in transfected cells; host or cells: HEK293
T6 sequence (P49146 1-381 L227A): T3 sequence (P49146 1-381 F307A) with L227A, A307F
Method: as §1, §2, §3, §4

[7] = molecular target: T7, Y2R mutant L284^6.51A (Homo sapiens, UniProt P49146, L284A); assay: NPY-induced IP accumulation (IP-One), mutant; format: cell-based
T7 construct: expressed in transfected cells; host or cells: HEK293
T7 sequence (P49146 1-381 L284A): T3 sequence (P49146 1-381 F307A) with L284A, A307F
Method: as §1, §2, §3, §4

[8] = system: opioid and adrenergic receptors; design: method as in Brothers, S. P. et al., Mol. Pharmacol. 77:46–57, 2010; conditions: ref Brothers, S. P. et al., Mol. Pharmacol. 77:46–57, 2010; cited from earlier work
[9] = 1 μM antagonist, source data Fig. 3
[10] = EC50(NPY + 1 μM antagonist)/EC50(NPY)
[11] = EC50 ratio (WT)/EC50 ratio (mutant)

Average EC50 ratio [1]: 168.7
EC50 ratio (individual experiments) [1]: 275.8 and 61.6
Average EC50 ratio [2]: 738.6
EC50 ratio (individual experiments) [2]: 1348.6 and 128.7
Average EC50 ratio [3, 9]: 89.4
EC50 ratio (individual experiments) [3, 9]: 68.0 and 110.9
EC50 ratio [3, 10]: 68 and 111
Ratio change (fold) [3, 11]: 2 fold and 1.4 fold
Average EC50 ratio [4, 9]: 302.6
EC50 ratio (individual experiments) [4, 9]: 285.2 and 320.0
EC50 ratio [4, 10]: 285 and 320
Ratio change (fold) [4, 11]: 0.6 fold and 0.5 fold
Average EC50 ratio [5]: 47.6
EC50 ratio (individual experiments) [5]: 25.1 and 70.1
Average EC50 ratio [6, 9]: 27.7
EC50 ratio (individual experiments) [6, 9]: 31.4 and 24.0
EC50 ratio [6, 10]: 31 and 24
Ratio change (fold) [6, 11]: 5 fold and 7 fold
Average EC50 ratio [7, 9]: 108.6
EC50 ratio (individual experiments) [7, 9]: 88.8 and 128.4
EC50 ratio [7, 10]: 89 and 128
Ratio change (fold) [7, 11]: 1.8 fold and 1.2 fold
SMILES: N=C(N)NCCC[C@H](NC(=O)CC1(CC(=O)N2CCN(C3c4ccccc4NC(=O)c4ccccc43)CC2)CCCC1)C(=O)NCCn1c(=O)n(-c2ccccc2)n(-c2ccccc2)c1=O (some centres unmarked) [BIIE0246]
Affinities at opioid and adrenergic receptors [8]: submicromolar
